US20240319193A1, “CIRCULATING TUMOR CELL DIAGNOSTICS FOR BIOMARKERS PREDICTIVE OF RESISTANCE TO ANDROGEN RECEPTOR (AR) TARGETED THERAPIES” (Epic Sciences, Inc., priority 2014, published 2024)

System: progressive mCRPC patients
Assay: Response to AR targeted therapy by baseline CTC AR expression (Epic CTC), Example 1
Type: in vivo, human
Conditions: pooled AA+P or E patients; for patients with high AR who responded: high baseline AR expression on CTCs, N = 7; for patients with low AR who had a PSA decline and stable radiographic disease: low baseline AR expression on CTCs, N = 14, median follow-up 12 wks
Source text: 48 samples from 21 unique progressive mCRPC patients treated with androgen receptor targeted (AR tx) therapies, 9 (43%) on Abiraterone plus Prednisone (AA+P) and 12 (57%) on Enzalutamide (E). Samples were collected and shipped to Epic Sciences, where cells were stained and CTC identified by fluorescent scanners and algorithmic analysis. CTCs, defined as classic (CK+CD45-w/intact DAPI nuclei and distinct), apopotic (CK+, CD45−, non-intact nuclei) and CK− (CK−, CD45-, intact and distinct) were identified. CTCs reported per mL of blood and were examined for AR, PTEN & ERG. CTC data were analyzed in context of PSA, Veridex CTC (reported per 7.5mL of blood), and clinical history.

Compound	patients with high AR who responded	patients with low AR who had a PSA decline and stable radiographic disease
CNC(=O)c1ccc(N2C(=S)N(c3ccc(C#N)c(C(F)(F)F)c3)C(=O)C2(C)C)cc1F [Enzalutamide]	0%	53%
Abiraterone plus Prednisone	0%	53%
